This note sets out measurements from patent publication US10239883B2, “4-imidazopyridazin-1-yl-benzamides as BTK inhibitors” (Merck Sharp & Dohme B.V., priority 2011, dated 2019).

The target in one test is Btk enzyme (His-Btk) (Homo sapiens (Human), UniProt Q06187). Kind of test: Btk enzyme activity, IMAP fluorescence polarization assay. Conditions: 60 min pre-incubation, 5 μM ATP, bin bound in nM. (In general: Fluorescence polarisation rises when a labelled molecule tumbles more slowly, as on binding a larger partner.)
Chain of Btk enzyme (His-Btk) (Q06187 whole entry): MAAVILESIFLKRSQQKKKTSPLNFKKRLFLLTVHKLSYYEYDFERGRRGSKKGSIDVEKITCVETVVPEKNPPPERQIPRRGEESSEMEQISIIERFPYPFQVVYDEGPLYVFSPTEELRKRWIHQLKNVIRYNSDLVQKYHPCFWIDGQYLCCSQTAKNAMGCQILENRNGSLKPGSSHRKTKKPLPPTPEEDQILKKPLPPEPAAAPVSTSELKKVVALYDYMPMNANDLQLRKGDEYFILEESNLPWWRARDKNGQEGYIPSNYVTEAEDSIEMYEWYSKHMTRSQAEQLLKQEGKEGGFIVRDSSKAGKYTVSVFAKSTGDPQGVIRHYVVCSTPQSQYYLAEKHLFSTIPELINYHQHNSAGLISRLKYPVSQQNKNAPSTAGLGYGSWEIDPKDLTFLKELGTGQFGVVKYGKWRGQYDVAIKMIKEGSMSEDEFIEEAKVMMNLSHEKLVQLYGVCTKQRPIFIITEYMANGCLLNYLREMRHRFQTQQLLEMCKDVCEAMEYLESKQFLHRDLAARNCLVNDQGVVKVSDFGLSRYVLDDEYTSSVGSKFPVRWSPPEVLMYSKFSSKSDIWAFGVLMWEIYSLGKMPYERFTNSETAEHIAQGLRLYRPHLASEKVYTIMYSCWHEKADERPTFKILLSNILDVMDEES
Turning to `Nc1nccn2c([C@@H]3CCCN3C(=O)/C=C/CN3CCCC3)nc(-c3ccc(C(=O)Nc4ccccn4)cc3)c12` [Example 2, (S,E)-4-(8-amino-3-(1-(4-(pyrrolidin-1-yl)but-2-enoyl)pyrrolidin-2-yl)imidazo[1,5-a]pyrazin-1-yl)-N-(pyridin-2-yl)benzamide], the “EC50 Btk activity values” is less than 100 nM. Consider `COC/C=C/C(=O)N1CCC[C@H]1c1nc(-c2ccc(C(=O)Nc3ccccn3)cc2)c2c(N)nccn12` [Example 4, (S,E)-4-(8-amino-3-(1-(4-methoxybut-2-enoyl)pyrrolidin-2-yl)imidazo[1,5-a]pyrazin-1-yl)-N-(pyridin-2-yl)benzamide], for which the “EC50 Btk activity values” is less than 100 nM. Consider `Nc1nccn2c([C@@H]3CCCN3C(=O)c3ccnc(Cl)n3)nc(-c3ccc(C(=O)Nc4ccccn4)cc3)c12` [Example 5, (S)-4-(8-amino-3-(1-(2-chloropyrimidine-4-carbonyl)pyrrolidin-2-yl)imidazo[1,5-a]pyrazin-1-yl)-N-(pyridin-2-yl)benzamide], for which the “EC50 Btk activity values” is on record as less than 100 nM. Same read-out and setting: the figure for `CN(C)C/C=C/C(=O)N1CCC[C@H]1c1nc(-c2ccc(C(=O)Nc3cc(F)ccn3)cc2)c2c(N)nccn12` [Example 7, (S,E)-4-(8-Amino-3-(1-(4-(dimethylamino)but-2-enoyl)pyrrolidin-2-yl)imidazo[1,5-a]pyrazin-1-yl)-N-(4-fluoropyridin-2-yl)benzamide] is less than 100 nM; for `CCc1ccnc(NC(=O)c2ccc(-c3nc([C@@H]4CCCN4C(=O)/C=C/COC)n4ccnc(N)c34)cc2)c1` [Example 11, (S,E)-4-(8-Amino-3-(1-(4-methoxybut-2-enoyl)pyrrolidin-2-yl)imidazo[1,5-a]pyrazin-1-yl)-N-(4-ethylpyridin-2-yl)benzamide] it is less than 100 nM; for `CC#CC(=O)N1CCCC[C@H]1c1nc(-c2ccc(C(=O)Nc3ccon3)cc2)c2c(N)nccn12` [Example 24, (S)-4-(8-Amino-3-(1-but-2-ynoylpiperidin-2-yl)imidazo[1,5-a]pyrazin-1-yl)-N-(isoxazol-3-yl)benzamide] it is less than 100 nM. The same measure, in the same setting: the figure for `CN(C)CC#CC(=O)N1CCC[C@H]1c1nc(-c2ccc(C(=O)Nc3ccccn3)cc2)c2c(N)nccn12` [Example 40, (S)-4-(8-Amino-3-(1-(4-(dimethylamino)but-2-ynoyl)pyrrolidin-2-yl)imidazo[1,5-a]pyrazin-1-yl)-N-(pyridin-2-yl)benzamide] is less than 100 nM; for `COCC#CC(=O)N1CCC[C@H]1c1nc(-c2ccc(C(=O)Nc3ccccn3)cc2)c2c(N)nccn12` [Example 41, (S)-4-(8-Amino-3-(1-(4-methoxybut-2-ynoyl)pyrrolidin-2-yl)imidazo[1,5-a]pyrazin-1-yl)-N-(pyridin-2-yl)benzamide] it is less than 100 nM; for `CC#CC(=O)N1CCC[C@H]1c1nc(-c2ccc(C(=O)Nc3ccccn3)c(F)c2)c2c(N)nccn12` [Example 50, (S)-4-(8-amino-3-(1-but-2-ynoylpyrrolidin-2-yl)imidazo[1,5-a]pyrazin-1-yl)-2-fluoro-N-(pyridin-2-yl)benzamide] it is less than 100 nM. Still for that read-out and setting: the value for `COC/C=C/C(=O)N1CCC[C@H]1c1nc(-c2ccc(C(=O)Nc3cc(OC)ccn3)cc2)c2c(N)nccn12` [Example 51, (S,E)-4-(8-amino-3-(1-(4-methoxybut-2-enoyl)pyrrolidin-2-yl)imidazo[1,5-a]pyrazin-1-yl)-N-(4-methoxypyridin-2-yl)benzamide] was less than 100 nM; that for `Cc1cc(C(=O)Nc2ccccn2)ccc1-c1nc([C@@H]2CCCCN2C(=O)c2ccnc(Cl)n2)n2ccnc(N)c12` [Example 56, 4-(8-amino-3-((S)-1-(2-chloropyrimidine-4-carbonyl)piperidin-2-yl)imidazo[1,5-a]pyrazin-1-yl)-3-methyl-N-(pyridin-2-yl)benzamide] was less than 100 nM. Regarding `COC/C=C/C(=O)N1CCC[C@H]1c1nc(-c2ccc(C(=O)Nc3cc(C)ccn3)cc2)c2c(N)nccn12` [Example 57, (S,E)-4-(8-amino-3-(1-(4-methoxybut-2-enoyl)pyrrolidin-2-yl)imidazo[1,5-a]pyrazin-1-yl)-N-(4-methylpyridin-2-yl)benzamide], the “EC50 Btk activity values” is on record as less than 100 nM.

For `COC/C=C/C(=O)N1CCC[C@H]1c1nc(-c2ccc(C(=O)Nc3cc(C(C)C)ccn3)cc2)c2c(N)nccn12` [Example 58, (S,E)-4-(8-amino-3-(1-(4-methoxybut-2-enoyl)pyrrolidin-2-yl)imidazo[1,5-a]pyrazin-1-yl)-N-(4-isopropylpyridin-2-yl)benzamide], the “EC50 Btk activity values” is on record as less than 100 nM. Still for that read-out and setting: the value for `Cc1ccnc(NC(=O)c2ccc(-c3nc([C@@H]4CCCN4C(=O)/C=C/CN(C)C)n4ccnc(N)c34)cc2)c1` [Example 59, (S,E)-4-(8-amino-3-(1-(4-(dimethylamino)but-2-enoyl)pyrrolidin-2-yl)imidazo[1,5-a]pyrazin-1-yl)-N-(4-methylpyridin-2-yl)benzamide] was less than 100 nM; that for `CN(C)C/C=C/C(=O)NCc1nc(-c2ccc(C(=O)Nc3ccccn3)cc2)c2c(N)nccn12` [Example 69, (E)-4-(8-amino-3-((4-(dimethylamino)but-2-enamido)methyl)imidazo[1,5-a]pyrazin-1-yl)-N-(pyridin-2-yl)benzamide] was less than 100 nM; that for `CC(C)c1ccnc(NC(=O)c2ccc(-c3nc([C@@H]4CCCN4C(=O)c4ccnc(Cl)n4)n4ccnc(N)c34)cc2)c1` [Example 70, (S)-4-(8-amino-3-(1-(2-chloropyrimidine-4-carbonyl)pyrrolidin-2-yl)imidazo[1,5-a]pyrazin-1-yl)-N-(4-isopropylpyridin-2-yl)benzamide] was less than 100 nM. On the same count and under the same terms, the value for `Nc1nccn2c([C@@H]3CCCN3C(=O)c3ccnc(Cl)n3)nc(-c3ccc(C(=O)Nc4nc5c(s4)CCCC5)cc3)c12` [Example 71, (S)-4-(8-amino-3-(1-(2-chloropyrimidine-4-carbonyl)pyrrolidin-2-yl)imidazo[1,5-a]pyrazin-1-yl)-N-(4,5,6,7-tetrahydrobenzo[d]thiazol-2-yl)benzamide] was less than 100 nM; that for `CN(C)C/C=C/C(=O)N1CCCC[C@H]1c1nc(-c2ccc(C(=O)Nc3cccnn3)cc2)c2c(N)nccn12` [Example 73, (S,E)-4-(8-amino-3-(1-(4-(dimethylamino)but-2-enoyl)piperidin-2-yl)imidazo[1,5-a]pyrazin-1-yl)-N-(pyridazin-3-yl)benzamide] was less than 100 nM. Consider `Nc1nccn2c([C@@H]3CCCCN3C(=O)c3ccnc(Cl)n3)nc(-c3ccc(C(=O)Nc4cc(F)ccn4)cc3)c12` [Example 80, (S)-4-(8-amino-3-(1-(2-chloropyrimidine-4-carbonyl)piperidin-2-yl)imidazo[1,5-a]pyrazin-1-yl)-N-(4-fluoropyridin-2-yl)benzamide], for which the “EC50 Btk activity values” is given as less than 100 nM. The same measure, in the same setting: the value for `COC/C=C/C(=O)N1CCCC[C@H]1c1nc(-c2ccc(C(=O)Nc3cc(F)ccn3)cc2)c2c(N)nccn12` [Example 81, (S,E)-4-(8-amino-3-(1-(4-methoxybut-2-enoyl)piperidin-2-yl)imidazo[1,5-a]pyrazin-1-yl)-N-(4-fluoropyridin-2-yl)benzamide] was less than 100 nM; that for `COC/C=C/C(=O)N1CCC[C@H]1c1nc(-c2ccc(C(=O)Nc3nc4c(s3)CCCC4)cc2)c2c(N)nccn12` [Example 82, (S,E)-4-(8-amino-3-(1-(4-methoxybut-2-enoyl)pyrrolidin-2-yl)imidazo[1,5-a]pyrazin-1-yl)-N-(4,5,6,7-tetrahydrobenzo[d]thiazol-2-yl)benzamide] was less than 100 nM.

Staying with this test, now noted: 60 min pre-incubation, 5 μM ATP, bin bound in μM.
For the compound `COC/C=C/C(=O)N1CCC[C@H]1c1nc(-c2ccc(C(=O)Nc3ccccn3)c(F)c2)c2c(N)nccn12` [Example 52], the “EC50 Btk activity values” was less than 1000 nM. Turning to `COC/C=C/C(=O)N1CCC[C@H]1c1nc(-c2ccc(C(=O)Nc3cc(F)ccn3)cc2)c2c(N)nccn12` [Example 53, (S,E)-4-(8-amino-3-(1-(4-methoxybut-2-enoyl)pyrrolidin-2-yl)imidazo[1,5-a]pyrazin-1-yl)-N-(4-fluoropyridin-2-yl)benzamide], the “EC50 Btk activity values” was less than 1000 nM. Still for that read-out and setting: the value for `COC/C=C/C(=O)N1CCCC[C@H]1c1nc(-c2ccc(C(=O)Nc3ccon3)cc2)c2c(N)nccn12` [Example 54, (S,E)-4-(8-amino-3-(1-(4-methoxybut-2-enoyl)piperidin-2-yl)imidazo[1,5-a]pyrazin-1-yl)-N-(isoxazol-3-yl)benzamide] was less than 1000 nM; that for `COC/C=C/C(=O)N1CCCC[C@H]1c1nc(-c2ccc(C(=O)Nc3ncccn3)cc2)c2c(N)nccn12` [Example 55, (S,E)-4-(8-amino-3-(1-(4-methoxybut-2-enoyl)piperidin-2-yl)imidazo[1,5-a]pyrazin-1-yl)-N-(pyrimidin-2-yl)benzamide] was less than 1000 nM. Same read-out and setting: the value for `C=CC(=O)N1CCCC[C@H]1c1nc(-c2ccc(C(=O)Nc3ccccn3)cc2C)c2c(N)nccn12` [Example 68, 4-(3-((S)-1-acryloylpiperidin-2-yl)-8-aminoimidazo[1,5-a]pyrazin-1-yl)-3-methyl-N-(pyridin-2-yl)benzamide] was less than 1000 nM; that for `COC/C=C/C(=O)N1CCCC[C@H]1c1nc(-c2ccc(C(=O)Nc3cccnn3)cc2)c2c(N)nccn12` [Example 72, (S,E)-4-(8-amino-3-(1-(4-methoxybut-2-enoyl)piperidin-2-yl)imidazo[1,5-a]pyrazin-1-yl)-N-(pyridazin-3-yl)benzamide] was less than 1000 nM. Same read-out and setting: the figure for `Nc1nccn2c([C@@H]3CCCCN3C(=O)c3ccnc(Cl)n3)nc(-c3ccc(C(=O)Nc4cccnn4)cc3)c12` [Example 74, (S)-4-(8-amino-3-(1-(2-chloropyrimidine-4-carbonyl)piperidin-2-yl)imidazo[1,5-a]pyrazin-1-yl)-N-(pyridazin-3-yl)benzamide] is less than 1000 nM.
